Laboratory results reported in US20090239881A1 (Boehringer Ingelheim International GmbH, priority 2006, published 2009).

Tests used:
[1] = after ingestion; cited from earlier work
[2] = test system: Sexual Disorders and/or Dysfunctions; experiment: Studies of female patients suffering from Sexual Disorders; type: in vivo, human
5-HT1A receptor = target: T1, 5-HT1A receptor (Homo sapiens, UniProt P08908); settings: cited from earlier work
T1 sequence (P08908 1-422): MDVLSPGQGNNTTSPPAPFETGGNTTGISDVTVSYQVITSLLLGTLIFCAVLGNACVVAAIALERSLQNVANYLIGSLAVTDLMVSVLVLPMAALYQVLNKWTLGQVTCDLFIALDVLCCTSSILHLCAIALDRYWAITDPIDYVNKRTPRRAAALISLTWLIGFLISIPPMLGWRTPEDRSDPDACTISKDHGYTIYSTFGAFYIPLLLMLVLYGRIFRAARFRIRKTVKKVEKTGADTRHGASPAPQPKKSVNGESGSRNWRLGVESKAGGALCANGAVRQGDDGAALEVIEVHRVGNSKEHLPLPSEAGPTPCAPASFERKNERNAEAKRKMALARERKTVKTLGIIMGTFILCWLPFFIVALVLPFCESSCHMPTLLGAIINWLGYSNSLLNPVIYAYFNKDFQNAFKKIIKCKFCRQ

5-HT2-receptor = settings: cited from earlier work
[3] = known use of flibanserin; cited from earlier work

Row | SMILES | physiological half-life [1] | effect on Sexual Disorders and/or Dysfunctions [2] | affinity for the 5-HT1A receptor (5-HT1A receptor) | affinity for the 5-HT2-receptor (5-HT2-receptor) | side effects (sedation) [3]
1 | Cn1c(=O)c2c(ncn2C)n(C)c1=O [caffeine] | three and a half to six | – | – | – | –
2 | O=c1[nH]c2ccccc2n1CCN1CCN(c2cccc(C(F)(F)F)c2)CC1 [flibanserin, 1-[2-(4-(3-trifluoromethyl-phenyl)piperazin-1-yl)ethyl]-2,3-dihydro-1H-benzimidazol-2-one] | – | positive effect | shows affinity | shows affinity | sometimes mild or moderate symptoms such as sedation may occur
